Holding throughout (assay type): cell-based
One assay has as its system S. aureus (UC-76). Kind of assay: In vitro antibacterial activity (MIC), S. aureus. The conditions noted are these: Staphylococcus aureus, UC76; strain UC-76; lowest concentration preventing macroscopically visible growth; read-out: Minimum Inhibitory concentrations S. aureus (UC-76). The text has this: (§1) The in vitro antibacterial activity of the compounds of the present invention may be assessed by following procedures recommended in (1) National Committee for Clinical Laboratory Standards (January 2003), Methods for dilution antimicrobial tests for bacteria that grow aerobically, Approved Standard (6th ed), M7-A6, NCCLS, Wayne, Pa.; (2) National Committee for Clinical Laboratory Standards (March 2001), Methods for antimicrobial susceptibility testing of anaerobic bacteria, Approved Standard (5th ed), M11-A4, NCCLS, Wayne, Pa.; (3) National Committee for Clinical Laboratory Standards (January 2003), MIC testing supplemental tables, M100-S13 (for use with M7-A6), NCCLS, Wayne, Pa.; and (4) Murray P R, Baron E J, Jorgensen J H, et al. Manual of Clinical Microbiology (8th ed) Washington, D.C.: American Society for Microbiology Press, 2003. The antibacterial activity can be presented in the form of MIC value. The MIC value is the lowest concentration of drug which prevented macroscopically visible growth under the conditions of the test.

The subject of a further assay is S. pyogenes (C203). Kind of assay: In vitro antibacterial activity (MIC), S. pyogenes. The conditions noted are these: Streptococcus pyogenes; strain C203; lowest concentration preventing macroscopically visible growth; read-out: Minimum Inhibitory concentrations S. pyogenes (C203).
Excerpt: as §1

For the next assay, the system named is S. pneumoniae (SV-1). The assay is described as follows: In vitro antibacterial activity (MIC), S. pneumoniae. The conditions noted are these: Streptococcus pneumoniae; strain SV-1; lowest concentration preventing macroscopically visible growth; read-out: Minimum Inhibitory concentrations S. pneumoniae (SV-1).
Excerpt: as §1

≈ marks a conversion by molar mass, not a printed value.

On to `NC(=O)[C@H]1CN(c2cc(F)c(N3CCCS(=O)(=O)CC3)c(F)c2)C(=O)O1` [Example 3, 3-[4-(1,1-dioxo-1λ^6-[1,4]thiazepan-4-yl)-3,5-difluoro-phenyl]-2-oxo-oxazolidine-5-carboxylic acid amide], for which the figures for the MIC in the assay with S. aureus (UC-76), with S. pyogenes (C203) and with S. pneumoniae (SV-1) were 2 µg/mL (≈ 5.14 µM), 2 µg/mL (≈ 5.14 µM) and 4 µg/mL (≈ 10.3 µM), respectively.
With `CNC(=O)[C@H]1CN(c2cc(F)c(N3CCCSCC3)c(F)c2)C(=O)O1` [Example 2, 3-[3,5-difluoro-4-(1,4-thiazepan-4-yl)-phenyl]-2-oxo-oxazolidine-5-carboxylic acid methylamide], the MIC in the assay with S. aureus (UC-76) is 2 µg/mL (≈ 5.38 µM); in the assay on S. pyogenes (C203) it was 2 µg/mL (≈ 5.38 µM); in the assay on S. pneumoniae (SV-1), 4 µg/mL (≈ 10.8 µM).
As for `NC(=O)[C@H]1CN(c2ccc(N3CCC[S+]([O-])CC3)c(F)c2)C(=O)O1` (stereo partly drawn) [Example 12, 5(R)-3-[3-fluoro4-(1-oxo-1-[1,4]thiazepan-4-yl)-phenyl]-2-oxo-oxazolidine-5-carboxylic acid amide], the MIC in the assay on S. aureus (UC-76) stood at 2 µg/mL (≈ 5.63 µM); in the assay on S. pyogenes (C203), 1 µg/mL (≈ 2.81 µM); in the assay on S. pneumoniae (SV-1) it was 4 µg/mL (≈ 11.3 µM).
As for `CONC(=O)[C@H]1CN(c2cc(F)c(N3CCCS(=O)(=O)CC3)c(F)c2)C(=O)O1` [Example 5, 3-[4-(1,1-dioxo-1λ^6-[1,4]thiazepan-4-yl)-3,5-difluoro-phenyl]-2-oxo-oxazolidine-5-carboxylic acid methoxy-amide], the MIC in the assay with S. aureus (UC-76) amounted to 4 µg/mL (≈ 9.54 µM); in the assay with S. pyogenes (C203) it was 4 µg/mL (≈ 9.54 µM); in the assay with S. pneumoniae (SV-1) it was 8 µg/mL (≈ 19.1 µM).
With `CNC(=O)[C@H]1CN(c2ccc(N3CCCS(=O)(=O)CC3)c(F)c2)C(=O)O1` [Example 13, 5(R)-3-[4-(1,1-dioxo-1λ^6-[1,4]thiazepan-4-yl)-3-fluoro-phenyl]-2-oxo-oxazolidine-5-carboxylic acid methyl amide], the MIC with S. aureus (UC-76) was 12 µg/mL (≈ 31.1 µM); in the assay on S. pyogenes (C203) it was 1 µg/mL (≈ 2.59 µM); in the assay with S. pneumoniae (SV-1), 2 µg/mL (≈ 5.19 µM).
As to `CNC(=O)[C@H]1CN(c2cc(F)c(N3CCCS(=O)(=O)CC3)c(F)c2)C(=O)O1` [Example 4, 3-[4-(1,1-dioxo-1λ^6-[1,4]thiazepan-4-yl)-3,5-difluoro-phenyl]-2-oxo-oxazolidine-5-carboxylic acid methylamide], the MIC in the assay on S. aureus (UC-76) is 2 µg/mL (≈ 4.96 µM); with S. pyogenes (C203), 2 µg/mL (≈ 4.96 µM); with S. pneumoniae (SV-1), 4 µg/mL (≈ 9.92 µM).
As to `CNC(=O)[C@H]1CN(c2ccc(N3CCCSCC3)c(F)c2)C(=O)O1` [Example 9, 5(R)-3-[3-Fluoro-4-(1,4-thiazepan-4-yl)-phenyl]-2-oxo-oxazolidine-5-carboxylic acid methylamide], the MIC in the assay on S. aureus (UC-76) turned out to be 8 µg/mL (≈ 22.6 µM); in the assay with S. pyogenes (C203), 4 µg/mL (≈ 11.3 µM); with S. pneumoniae (SV-1), 8 µg/mL (≈ 22.6 µM).
As for `CNC(=O)[C@H]1CN(c2cc(F)c(N3CCC/S(=N\C(=O)C(F)(F)F)CC3)c(F)c2)C(=O)O1` (stereo in doubt) [Example 7, 3-{3,5-difluoro-4-[1-(2,2,2-trifluoro-acetylimino)-1λ^4-[1,4]thiazepan-4-yl]-phenyl}-2-oxo-oxazolidine-5-carboxylic acid methylamide], the MIC with S. aureus (UC-76), in the assay on S. pyogenes (C203) and in the assay on S. pneumoniae (SV-1) was 8 µg/mL (≈ 16.6 µM) in each case.
For `CNC(=O)[C@H]1CN(c2ccc(N3CCC[S+]([O-])CC3)c(F)c2)C(=O)O1` (stereo partly drawn) [Example 11, 5(R)-3-[-fluoro-4-(1-oxo-1λ^4-[1,4]thiazepan-4yl)-phenyl]-2-oxo-oxazolidine-5-carboxylic acid methyl amide], the MIC in the assay on S. aureus (UC-76) stood at 2 µg/mL (≈ 5.41 µM); in the assay with S. pyogenes (C203), 1 µg/mL (≈ 2.71 µM); with S. pneumoniae (SV-1), 4 µg/mL (≈ 10.8 µM).
Regarding `NC(=O)[C@H]1CN(c2cc(F)c(N3CCCSCC3)c(F)c2)C(=O)O1` [Example 1, 3-[3,5-difluoro-4-(1,4-thiazepan-4-yl)-phenyl]-2-oxo-oxazolidine-5-carboxylic acid amide], the MIC with S. aureus (UC-76) worked out at 2 µg/mL (≈ 5.6 µM); in the assay on S. pyogenes (C203), 2 µg/mL (≈ 5.6 µM); in the assay on S. pneumoniae (SV-1), 4 µg/mL (≈ 11.2 µM).
For `NC(=O)[C@H]1CN(c2cc(F)c(N3CCC/S(=N\C(=O)C(F)(F)F)CC3)c(F)c2)C(=O)O1` (stereo partly drawn) [Example 6, 3-{3,5-difluoro-4-[1-(2,2,2-trifluoro-acetylimino)-114-[1,4]thiazepan-4-yl]-phenyl}-2-oxo-oxazolidine-5-carboxylic acid amide], the MIC with S. aureus (UC-76), in the assay with S. pyogenes (C203) and in the assay with S. pneumoniae (SV-1) was 8 µg/mL (≈ 17.1 µM) throughout.

Values taken from patent US20090137553A1, “Thiazepine Oxazolidinones as Antibacterial Agents” (Pharmacia and Upjohn Company LLC, priority 2004, published 2009).
